Literature values, collected in US10525009B2, “Formulations of 6-mercaptopurine” (Hadasit Medical Research Services and Development Ltd., priority 2004, dated 2020).

Compound: Sc1ncnc2nc[nH]c12 [6-MP, 6-mercaptopurine]
- fraction of an oral dose absorbed: Approximately 50%
